# According to paper PMC11089505, “Structural Elucidation and Antiviral Activity of Covalent Cathepsin L Inhibitors” (Journal of Medicinal Chemistry, 2024):
# Values joined by “and” are separate entries in the source; they are usually repeats but may differ in a detail not shown here. Identical values can stand only once. Like-named read-outs stand apart in the source and are kept apart here. Square brackets hold non-standard residues; d marks the D form. Peptide text beside a SMILES is read from it. Nle = CCCC[C@H](N)C(=O)O
# How the values were obtained:
# [1] = tested on: SARS-CoV-2-GFP in Vero E6 cells; assay: microbe, parasite or virus in culture; type: cell-based
# CatL [2] = molecular target: T1, CatL (Homo sapiens, UniProt P07711, T223A); assay: NanoDSF, thermal stability of CatL; type: binding; conditions: for 2:1, Tm average (CatL): 2:1 compound to protein; for 20:1, Tm average (CatL): 20:1 compound to protein; for ΔTm (for CatL), 2:1 compound to protein mixing ratio / ΔTm (for CatL), 20:1 compound to protein mixing ratio: pH 5
# T1 construct: made in house; host or cells: Komagataella pastoris strain GS115
# T1 sequence (P07711 114-333 T223A): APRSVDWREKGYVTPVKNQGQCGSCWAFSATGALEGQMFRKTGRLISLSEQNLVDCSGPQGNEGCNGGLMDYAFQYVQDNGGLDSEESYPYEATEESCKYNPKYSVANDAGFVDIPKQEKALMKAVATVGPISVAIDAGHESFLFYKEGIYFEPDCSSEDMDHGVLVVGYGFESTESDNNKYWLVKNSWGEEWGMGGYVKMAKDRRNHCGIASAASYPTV
# SARS-CoV-2 Mpro = SARS-CoV-2 Mpro (Severe acute respiratory syndrome coronavirus 2, UniProt P0DTD1); type: binding; conditions: for 2:1, Tm average (Mpro): 2:1 compound to protein
# CatL [3] = conditions: cited from earlier work
# CatL [4] = molecular target: T1, CatL; assay: CatL inactivation assay comparing epoxides at pH 6 and pH 4; type: biochemical
# Procedure: Experiments were performed in a solution of 50 mM sodium acetate, pH 4.0, 50 mM NaCl, 0.1% PEG 6000, and 5 mM DTT. Distinct assays with epoxide inhibitors at pH 6.0 were performed in 50 mM sodium phosphate buffer, 50 mM NaCl, 5 mM DTT, 0.1% PEG 6000, adjusted to pH 6.0.
# M1000 pro plate reader (Tecan), the fluorescent peptide substrate Z-RR-AMC, and excitation and emission wavelengths of 370 and 460 nm, respectively.
# At first, the inhibitor concentration span was optimized for each inhibitor and the assay buffer. For this initial screening, CatL (5 nM) was mixed with different concentrations of inhibitors (1 nM–50 μM) to determine the range of their inhibition. […] Reaction data were fitted to the […] in GraphPad Prism 9 software: Y = bottom + (top – bottom)/(1 + 10^∧((log IC50 – X) × HillSlope)); X is the log of dose or concentration, Y is the response (fluorescence signal), decreasing as X increases, top and bottom are the plateaus in the same units as Y, log IC50 same log units as X, HillSlope is the slope factor or called the Hill slope.
# Figure S7. Inactivation of CatL.
# (1 picture or pasted object on this page, not shown here)
# in vitro = conditions: African green monkey
smiles,measurement,setting,value
"CC(C)C[C@@H](C=O)NC(=O)[C@@H](NS(=O)(=O)c1ccc(F)cc1)C(C)C [CI-VI, 2-[(4-Fluorophenyl)sulfonylamino]-3-methyl-N-(4-methyl-1-oxopentan-2-yl)butanamide]",EC50,"[1]; Severe acute respiratory syndrome coronavirus 2, Vero C1008, 24 h, read-out: EC50 (24 h)",37.7 nM
same,EC50,"[1]; Severe acute respiratory syndrome coronavirus 2, Vero C1008, 24 h, read-out: EC50 (after 24 h)",37.7 nM
same,EC50,"[1]; Severe acute respiratory syndrome coronavirus 2, Vero C1008, 48 h, read-out: EC50 (after 48 h)",1330 nM
same,"ΔTm [K] for CatL, 2:1 ratio",CatL [2],15.2 ± 0.4 K
same,"2:1, Tm average (CatL)",CatL [2],78.3 °C
same,"20:1, Tm average (CatL)",CatL [2],81.4 °C
same,"ΔTm (for CatL), 2:1 compound to protein mixing ratio",CatL [2],"15,2 ± 0,4 °C and 15.2 °C"
same,"ΔTm (for CatL), 20:1 compound to protein mixing ratio",CatL [2],"18,3 ± 0,1 °C and 18.3 °C"
same,"2:1, Tm average (Mpro)",SARS-CoV-2 Mpro,54.5 °C
same,IC50,"CatL [3]; Table S1, SI reference list",1.6 nM
"CC(C)C[C@H](NC(=O)[C@H]1O[C@@H]1C(=O)O)C(=O)NCCCCN=C(N)N [E-64, 3-[[[(1S)-1-[[[4-[(Aminoiminomethyl)amino]butyl]amino]carbonyl]-3-methylbutyl]amino]carbonyl]-(2S.3S)-oxiranecarboxylic acid]","ΔTm [K] for CatL, 2:1 ratio",CatL [2],4.1 ± 0.4 K
same,"2:1, Tm average (CatL)",CatL [2],67.2 °C
same,"20:1, Tm average (CatL)",CatL [2],76.9 °C
same,"ΔTm (for CatL), 2:1 compound to protein mixing ratio",CatL [2],"4,1 ± 0,4 °C and 4.1 °C"
same,"ΔTm (for CatL), 20:1 compound to protein mixing ratio",CatL [2],"13,8 ± 0,1 °C and 13.8 °C"
same,"ΔTm (for Mpro), 2:1 compound to protein mixing ratio","SARS-CoV-2 Mpro; 8 µM Mpro, pH 7.5, 2% DMSO, 2:1","-1,0 ± 0,2 °C and -1 °C"
same,"2:1, Tm average (Mpro)",SARS-CoV-2 Mpro,54.4 °C
same,Inactivation Rate,"CatL [4]; E-64, pH 4, 19.76 nM",0.0008123 per second and 0.00102 per second
same,Inactivation Rate,"CatL [4]; E-64, pH 4, 29.64 nM",0.001302 per second and 0.001598 per second
same,Inactivation Rate,"CatL [4]; E-64, pH 4, 44.45 nM",0.002006 per second and 0.002388 per second
same,Inactivation Rate,"CatL [4]; E-64, pH 4, 66.68 nM",0.003192 per second and 0.003338 per second
same,Inactivation Rate,"CatL [4]; E-64, pH 4, 100.01 nM",0.004626 per second and 0.004922 per second
same,Inactivation Rate,"CatL [4]; E-64, pH 4, 225.00 nM",0.01185 per second and 0.01036 per second
same,Inactivation Rate,"CatL [4]; E-64, pH 6, 19.76 nM",0.0005258 per second and 0.000578 per second
same,Inactivation Rate,"CatL [4]; E-64, pH 6, 29.64 nM",0.0007668 per second and 0.0008131 per second
same,Inactivation Rate,"CatL [4]; E-64, pH 6, 44.45 nM",0.001154 per second and 0.001247 per second
same,Inactivation Rate,"CatL [4]; E-64, pH 6, 66.68 nM",0.001742 per second and 0.001837 per second
same,Inactivation Rate,"CatL [4]; E-64, pH 6, 100.01 nM",0.002659 per second and 0.002717 per second
same,Inactivation Rate,"CatL [4]; E-64, pH 6, 225.00 nM",0.006042 per second and 0.006005 per second
CSCCC(C=O)NC(=O)C(CC(C)C)NC(=O)C(CC(C)C)NC(C)=O (stereo not drawn) [CI-II] (Ac-Leu-Leu-Met-aldehyde; configuration not given here),Ki,"CatL [3]; Sasaki et al., read-out: Ki",0.6 nM
CCCC[C@@H](C=O)NC(=O)[C@H](CC(C)C)NC(=O)[C@H](CC(C)C)NC(C)=O [MG101] (Ac-Leu-Leu-[Nle]-aldehyde),"viability at 48 h, 1e-05 µM",in vitro,103%
same,"viability at 48 h, 0.0001 µM",in vitro,102%
same,"viability at 48 h, 0.001 µM",in vitro,102%
same,"viability at 48 h, 0.01 µM",in vitro,102%
same,"viability at 48 h, 0.1 µM",in vitro,102%
same,"viability at 48 h, 1 µM",in vitro,101%
same,"viability at 48 h, 10 µM",in vitro,63%
CC(C)C[C@H](NC(=O)OCc1ccccc1)C(=O)N[C@@H](CC1CCNC1=O)C(O)S(=O)(=O)O (some centres unmarked) [GC-376],Ki,CatL [3]; read-out: Ki of CatL inhibition,0.26 nM
